Laboratory results as given in article PMC6811539, “Minute-scale persistence of a GPCR conformation state triggered by non-cognate G protein interactions primes signaling” (Nature Communications, 2019).
Values joined by “and” are separate entries in the source; they are usually repeats but may differ in a detail not shown here. Equal entries are not always repeated. Where two headings read alike, the source gives them in different places. Where a SMILES comes first, the peptide text is derived from it. The star is where a group is joined. Biotin = O=C1N[C@H]2[C@H](CS[C@H]2CCCCC(=O)*)N1

Columns and labels:
PKC = test: cAMP accumulation with PKC inhibitors in Gαq-overexpressing and untransfected HEK293T cells; assay type: cell-based, human; conditions: pretreatment with inhibitor 10 μM; fenoterol 10 μM, forskolin 2 μM
Description: (§1) For concentration–response curves with Gαq overexpression as well as the knockdown experiments, transfected and control cells (untransfected or mock short hairpin RNA transfected) were resuspended to equivalent concentration (4 × 10^6 cells/ml) based on Countess II numbers.

β2-AR SPASM sensors = β2-AR SPASM sensors (Homo sapiens, UniProt P07550); test: cAMP accumulation in HEK293T cells expressing β2-AR SPASM sensors (cAMP Glo); assay type: cell-based; conditions: saturating agonist, normalized to β2-AR-(-), mean; for Emax: HEK-293T, read-out: Maximum cAMP (Emax)
β2-AR SPASM sensors, sequence (P07550 whole entry, one chain of several): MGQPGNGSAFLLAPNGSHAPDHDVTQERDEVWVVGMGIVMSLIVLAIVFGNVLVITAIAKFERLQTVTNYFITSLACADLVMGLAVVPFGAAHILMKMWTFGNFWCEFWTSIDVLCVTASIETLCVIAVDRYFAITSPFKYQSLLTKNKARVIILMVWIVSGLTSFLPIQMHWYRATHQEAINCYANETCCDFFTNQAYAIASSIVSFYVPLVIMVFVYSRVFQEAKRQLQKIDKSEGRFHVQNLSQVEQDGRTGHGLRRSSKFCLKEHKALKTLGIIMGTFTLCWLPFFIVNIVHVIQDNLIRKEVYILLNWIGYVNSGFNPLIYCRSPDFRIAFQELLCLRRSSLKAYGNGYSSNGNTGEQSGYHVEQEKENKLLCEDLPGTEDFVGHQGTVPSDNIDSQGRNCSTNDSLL
β2-AR SPASM sensors, sequence (P50148 333-359, one chain of several, further chain): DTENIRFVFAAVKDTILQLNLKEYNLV

endogenous β2-AR = endogenous β2-AR (Homo sapiens, UniProt P07550); test: cell-based; conditions: HEK-293T, with forskolin 2 μM, 10 min, mean ± SD
endogenous β2-AR, sequence (P07550 whole entry): as the sequence (P07550 whole entry, one chain of several) above
Description: as §1

β2-AR-mCer = molecular target: T1, β2-AR-mCer (Homo sapiens, UniProt P07550); test: affinity pull-down and release (binding-and-release) assay for Gα peptide–β2-AR interaction; conditions: biotinylated peptide 30 μM, β2-mCer 10 nM
T1 construct: expressed in transfected cells; host or cells: native membranes of transiently transfected HEK293T cells
T1 sequence (P07550 whole entry): as the sequence (P07550 whole entry, one chain of several) above
Protocol: Native membranes were prepared from cells expressing β2-mCer and stored in sucrose-supplemented buffer A as described above (Membrane preparations). Membranes were sonicated (3× bursts, 15 s with 1 min pauses) and resuspended in ΔFRET buffer minus Ca^2+ to a concentration of 10 nM receptor based on fluorescence counts. bioQp/bioSp (30 μM) and 100 μM isoproterenol were added and mixed for 5 min. Samples were split into duplicates, one of which was not manipulated in any way to obtain total receptor counts. To the other tube, 20 μl of 0.4 mg/ml streptavidin-coated magnetic beads were added, mixed, and precipitated using a Neodymium disc magnet N52 (20 × 40 mm). Supernatant was removed to a fresh micro-centrifuge tube to monitor fluorescence of receptors not bound to the beads. A solution of 100 μM Qp/Sp was added to the precipitated beads, mixed, and magnetically separated again. The supernatant was collected to determine the released fraction of receptors. Fluorescence of mCer was monitored on a FluoroMax 4 fluorometer (Horiba) using 430 nm excitation (8 nm bandpass) and emission scan from 450 to 500 nm, with the maximum at 475 nm being used for the calculation. Based on total and unbound counts, the amount of receptor bound was calculated (bound = total − unbound) and compared with the counts from the released receptor (% = released/bound). […]

[1] = extent of photocleavage of PC-Qp by MALDI-MS; assay type: physicochemical
Protocol: Native membranes were prepared from cells expressing β2-mCer and were stored in sucrose-supplemented buffer A as described above (Membrane preparations). […]. Both samples were centrifuged 100,000 × g, 5 min, 4 °C to sediment the membrane. Supernatants were stored on ice for analysis by MS. Control samples containing 50 μM peptide in the buffer were also prepared.
Prior to matrix-assisted laser desorption and ionization time-of-flight MS (MALDI-TOF MS) analysis, the samples were desalted using C18 ZipTips (Millipore Corporation, Billerica, MA). The manufacturer’s standard protocol for peptide clean-up was followed. After elution from the ZipTip, 1 μL of each sample was spotted on a MALDI-TOF 384 spot stainless-steel target (Bruker Daltonics, Billerica, MA) and mixed with 1 μl of α-cyano-4-hydroxy-cinnamic acid (α-CHCA) matrix (15 mg/ml α-CHCA in 50% acetonitrile). Each spot was allowed to dry at room temperature. The target was placed in a Bruker Autoflex Speed MALDI-TOF mass spectrometer (Bruker Daltonics, Billerica, MA) equipped with a Nd-YAG 355 nm pulsed laser. The data were collected in reflectron mode, positive polarity, with an accelerating potential of 19 kV. Each spectrum was the accumulation of 4000 laser shots with complete spot raster of the laser during data collection. External calibration was performed using 0.5 μl α-CHCA and 0.5 μl of peptide standard (part# 206195, Bruker Daltonics, Billerica, MA) with Angiotensin II (monoisotopic mass [MH^+ ] 1046.5418), Angiotensin I (monoisotopic mass [MH^+ ] 1296.6848), SubstanceP (monoisotopic mass [MH^+] 1347.7354), Bombesin (monoisotopic mass [MH^+] 1619.8223), ACTH clip 1–17 (monoisotopic mass [MH^+] 2093.0862), ACTH clip 18–39 (monoisotopic mass [MH^+] 2465.1983), and Somatostatin 28 (monoisotopic mass [MH^+] 3147.4710). The Bruker data files were converted to mzXML files using MSConvertGUI tool in ProteoWizard open-source software. The mzXML files were viewed and analyzed with mMass v5.5 open-source software.

V1A-R with purified Gαq = test: activation of purified Gq (BODIPY-FL-GTPγS) in V1A-R membranes; assay type: biochemical, human (V1AR); Mus musculus (Gαq); conditions: hotspot swapped peptide vs. parent; vasopressin 100 nM
V1A-R SPASM sensors = test: IP1 levels in HEK293T cells expressing V1A-R SPASM sensors; assay type: cell-based, human; conditions: hotspot swapped peptide vs. parent; vasopressin 100 nM
Protocol: HEK293T cells expressing the indicated sensor were collected 28–32 h post transfection, to assess IP1 levels using the IP-One HTRF assay kit (Cisbio). Cells were gently resuspended in their original media, counted using a hemocytometer, and centrifuged (300 × g, 3 min). An appropriate volume of StimB buffer (CisBio: 10 mM Hepes, 1 mM CaCl2, 0.5 mM MgCl2, 4.2 mM KCl, 146 mM NaCl, 5.5 mM glucose, 50 mM LiCl, pH 7.4) was added to reach a density of 3 × 10^6 cells/mL. Cells were incubated at 37 °C for 15 min. Cells were subsequently incubated with or without 100 nM of Arg-vasopressin peptide for 5 min at 37 °C. The manufacturer’s protocol was modified to achieve a high signal-to-noise ratio. […] IP1 FRET spectra were collected in top read format using a FlexStation3 plate reader with a delay of 50 μs and an integration time of 300 μs. […] FRET was calculated from ratio of the emission at […] to the emission at 620 nm. […]
Supplementary Figure 1 - Hot-spot substitutions in Gα peptides affect G protein activation and downstream signaling from V1A-R. (a) Activation of G protein (Gαq) is monitored by the increase in BODIPY fluorescence upon agonist stimulation of membranes harvested from HEK293T cells expressing V1A- R, and reconstituted with purified Gαq. […] Statistically significant differences were assessed by a one- way ANOVA, followed by Tukey’s post-ANOVA test. […]

Compound: CN(C)CCCn1cc(C2=C(c3c[nH]c4ccccc34)C(=O)NC2=O)c2ccccc21 [BimI]
- effect of PKC inhibitor on enhanced cAMP response of Gαq-overexpressing cells (PKC): did not block the enhanced cAMP response

Compound: CNC[C@H](O)c1ccc(O)c(O)c1 [Epinephrine, epinephrine]
- Maximum cAMP (Emax) (β2-AR SPASM sensors; b2-AR-(-) sensor): 100%
- Maximum cAMP (Emax) (β2-AR SPASM sensors; b2-AR-(Qp) sensor): 182.89%
- Maximum cAMP (Emax) (β2-AR SPASM sensors; b2-AR-(Sp) sensor): 197.09%

Compound: CC(Cc1ccc(O)cc1)NCC(O)c1cc(O)cc(O)c1 (centres unmarked) [Fenoterol, fenoterol]
- Emax (β2-AR SPASM sensors; b2-AR-(-) sensor): 97.5%
- Emax (β2-AR SPASM sensors; b2-AR-(Qp) sensor): 171%
- Emax (β2-AR SPASM sensors; b2-AR-(Sp) sensor): 131%
- Emax (endogenous β2-AR; Gαq overexpressing): 138 ± 3.15%
- Emax (endogenous β2-AR; untransfected (Un.)): 94.5 ± 3.05%

Compound: COc1ccc2c(c1)c(C1=C(c3c[nH]c4ccccc34)C(=O)NC1=O)cn2CCCN(C)C [Gö6983]
- effect of PKC inhibitor on enhanced cAMP response of Gαq-overexpressing cells (PKC): did not block the enhanced cAMP response

Compound: CC[C@H](C)[C@H](NC(=O)[C@H](CC(N)=O)NC(=O)[C@H](CCC(=O)O)NC(=O)[C@@H](NC(=O)[C@H](CC(=O)O)NC(=O)CCCC[C@@H]1SC[C@@H]2NC(=O)N[C@@H]21)[C@@H](C)O)C(=O)N[C@@H](CCCNC(=N)N)C(=O)N[C@@H](CCCNC(=N)N)C(=O)N[C@H](C(=O)N[C@@H](Cc1ccccc1)C(=O)N[C@@H](CC(N)=O)C(=O)N[C@@H](CC(=O)O)C(=O)N[C@@H](CS)C(=O)N[C@@H](CCCNC(=N)N)C(=O)N[C@@H](CC(=O)O)C(=O)N[C@H](C(=O)N[C@H](C(=O)N[C@@H](CCC(N)=O)C(=O)N[C@@H](CCCNC(=N)N)C(=O)N[C@@H](CCSC)C(=O)N[C@@H](Cc1c[nH]cn1)C(=O)N[C@@H](CC(C)C)C(=O)N[C@@H](CCCNC(=N)N)C(=O)N[C@@H](CCC(N)=O)C(=O)N[C@@H](Cc1ccc(O)cc1)C(=O)N[C@@H](CCC(=O)O)C(=O)N[C@@H](CC(C)C)C(=O)N[C@@H](CC(C)C)C(=O)O)[C@@H](C)CC)[C@@H](C)CC)C(C)C [bioSp] (Biotin-DTENIRRVFNDCRDIIQRMHLRQYELL-OH)
- mean bound (100-Supernatant) (β2-AR-mCer; isoproterenol 100 μM, total incl. nonspecific): 54.8625%
- receptor specifically pulled down (bound) (β2-AR-mCer; nonspecific subtracted, mean): 45% and 45.31%

Compound: N-term fragment: N-terminal fragment generated by photocleavage of PC-Qp (DTENIRFVFAAVKDTILQLNLKE)
- N-term fragment cleaved (fraction, MALDI-MS) ([1]; minus UV, replicate 1): 0.33
- N-term fragment cleaved (fraction, MALDI-MS) ([1]; minus UV, replicate 2): 0.24
- N-term fragment cleaved (fraction, MALDI-MS) ([1]; minus UV, replicate 3): 0.38
- N-term fragment cleaved (fraction, MALDI-MS) ([1]; plus UV (350 nm, 2 min), replicate 1): 0.91
- N-term fragment cleaved (fraction, MALDI-MS) ([1]; plus UV (350 nm, 2 min), replicate 2): 0.91
- N-term fragment cleaved (fraction, MALDI-MS) ([1]; plus UV (350 nm, 2 min), replicate 3): 0.92

Compound: Qp → Sp: Qp mutant L349Q, E355Q, mimicking Sp (DTENIRFVFAAVKDTIQQLNLKQYNLV)
- V1A-R G-protein activation in words (V1A-R with purified Gαq): increased cognate (Qp → Sp > Qp)
- V1A-R IP1 levels in words (V1A-R SPASM sensors): increased cognate (Qp → Sp > Qp)
